The text below walks through data of patent US20250213647A1, “CHEMOKINE RECEPTORS AND ALPHA1 ADRENERGIC RECEPTORS/VASOPRESSIN RECEPTORS 1A HETEROMERS AS DRUG TARGETS FOR DISEASE” (UNIVERSITY OF SOUTH FLORIDA, priority 2022, published 2025).

Assay [1] deals with T1, CCR2:α1b-AR heteromers (Homo sapiens, UniProt P35368+P41597). Nature of the assay: PRESTO-Tango β-arrestin recruitment assay, HTLA cells with CCR2-Tango plus α1b-AR. It counts as cell-based. On the set-up: Tango module of the TANGO vector (C); expressed in transfected cells; host or cells: HTLA. How it is done: (§1) The assays were performed as described previously (Albee, 2017; Gao, 2022; Albee, 2018; Eby, 2017; Cheng, 2017). HTLA cells were seeded in a 6-well plate and transfected with 750 ng FLAG-CCR2-Tango together with 750 ng pcDNA3.1 or HA-α1b-AR using TransIT-2020 Transfection Reagent. The next day, cells (75,000 cells/well) were plated onto poly-L-Lysine pre-coated 96-well plates and allowed to attach to the plate surface for at least 4 hours prior to treatment. Cells were treated with receptor ligands at the concentrations indicated in the figure legends for 2 h and then replaced with fresh full medium and incubated overnight at 37° C., 5% CO2 in a humidified environment. The following morning, medium was replaced with a 100 μL 1:10 mixture of Bright-Glo (Promega) and PBS. Plates were then incubated at room temperature for 10 min before measuring luminescence on a Biotek Synergy II plate reader. Relative luminescence units (RLU) are expressed as fold changes of RLU vs unstimulated cells.
T1 sequence (P41597 whole entry): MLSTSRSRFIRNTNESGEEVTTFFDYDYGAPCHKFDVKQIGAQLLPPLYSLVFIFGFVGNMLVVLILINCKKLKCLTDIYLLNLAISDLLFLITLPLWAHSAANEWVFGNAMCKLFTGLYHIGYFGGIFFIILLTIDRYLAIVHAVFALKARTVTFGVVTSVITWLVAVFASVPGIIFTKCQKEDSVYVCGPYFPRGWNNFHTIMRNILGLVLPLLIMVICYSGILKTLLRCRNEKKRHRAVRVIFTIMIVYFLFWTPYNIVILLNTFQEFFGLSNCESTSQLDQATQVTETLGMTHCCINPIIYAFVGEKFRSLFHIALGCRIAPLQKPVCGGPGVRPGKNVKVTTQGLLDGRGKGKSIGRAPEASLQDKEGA
T1 sequence (P35368 whole entry): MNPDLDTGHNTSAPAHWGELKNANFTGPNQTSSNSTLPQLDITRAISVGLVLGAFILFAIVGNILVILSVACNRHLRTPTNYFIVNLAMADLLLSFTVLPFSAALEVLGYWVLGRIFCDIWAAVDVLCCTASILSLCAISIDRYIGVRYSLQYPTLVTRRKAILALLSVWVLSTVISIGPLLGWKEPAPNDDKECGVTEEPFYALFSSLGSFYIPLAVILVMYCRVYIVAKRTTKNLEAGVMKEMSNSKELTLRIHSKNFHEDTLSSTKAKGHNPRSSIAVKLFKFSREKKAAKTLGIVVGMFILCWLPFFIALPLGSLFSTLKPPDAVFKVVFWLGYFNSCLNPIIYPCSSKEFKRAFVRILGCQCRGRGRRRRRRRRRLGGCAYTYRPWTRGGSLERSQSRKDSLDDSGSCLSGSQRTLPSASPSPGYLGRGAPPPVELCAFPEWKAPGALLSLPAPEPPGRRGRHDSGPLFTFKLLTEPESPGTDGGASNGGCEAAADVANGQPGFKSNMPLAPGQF

The test system of assay [2] is CR heteromerization partners of α1B/D-ARs (CCR1, CCR2, CXCR4). Nature of the assay: Chemotaxis assay, THP-1 cells, CR heteromerization partners of α1B/D-ARs taken together. Format: cell-based, human. Conditions: for chemotactic dose-responses for CCL23, CCL2 and CXCL12 in the presence of the ligand: 10 μM of phenylephrine or phentolamine, FIG. 17G-17I. Here is the method: (§2) Cell migration was measured employing the Neuroprobe (Gaithersburg, MD, USA) ChemoTx® Disposable Chemotaxis System. A 96-well Boyden-chamber (30 μL/well, 8 μm pores, 1×10^5 pores/cm^2 pore density) was selected for all chemotaxis experiments. Bottom wells of the Boyden-chamber were loaded with 30 μL of test substances at various concentrations. Top wells of the membrane were loaded with 25 μL of THP-1 cells, THP-1_ADRA1B^KO, wild type THP-1 cells after clonal expansion (=control for THP-1_ADRA1B^KO) or freshly isolated monocytes (200 cells/μL). THP-1 cells were suspended in depleted RPMI1640 (0.5% HyClone™ fetal bovine serum, Sigma); Freshly isolated monocytes were suspended in RPMI1640 (0.5% human platelet poor plasma, Sigma). After 3 hours, transmigrated cells were counted utilizing the Cytation 1 plate reader (BioTek) by direct imaging in high contrast bright field (4×) and post-imaging particle analyses with Gen5 (v3.05) Imaging & Microscopy Software (BioTek). The chemotactic index (CI) was calculated as the ratio of cells that transmigrated in the presence versus the absence of the test solutions.

Assay [3] addresses T2, CCR2 (Homo sapiens, UniProt P41597). Nature of the assay: PRESTO-Tango β-arrestin recruitment assay, HTLA cells with CCR2-Tango plus pcDNA3. Format: cell-based. Conditions: absence of α1b-AR; FIG. 5A. Here is the method:
as §1

Assay [4] concerns heteromeric complexes between α1B/D-ARs and CCR1, CCR2, CXCR4. Nature of the assay: Proximity ligation assay, receptor-receptor interactions on THP-1 cells. The following applies: 10 μM, 30 min at 37° C.; FIG. 8.
Assay [5] has as its target T1, CCR2:α1b-AR heteromers. Nature of the assay: BRET assay for β-arrestin recruitment, HEK293T co-expressing CCR2-Rluc, β-arrestin-YFP and α1b-AR. It counts as cell-based. Further details: expressed in transfected cells. The following applies: CCL2 plus 10 μM ligand; FIG. 5D. Here is the method: β-arrestin recruitment was measured by BRET, as described (Armando, 2014; Berchiche, 2011). In brief, HEK293T cells were plated in a 6-well plate and transfected with 0.1 μg of CCR2-RluII and 1.9 μg β-arrestin-YFP with 0.1 μg pcDNA3.1 or α1b-AR. One day after transfection, cells were re-plated into 96-well poly-L lysine precoated plates. After overnight incubation, cells were replaced with 0.1% glucose/PBS. Coelenterazine H in a final concentration of 5 μM was added to cells and incubated at room temperature for 3 min. […] The BRET changes were calculated by subtracting the BRET signal of untreated cells.

For assay [6], the system named is THP-1 cells (CCR2-mediated Gαi signaling). As to the kind of experiment: Cyclic AMP measurement in forskolin-stimulated THP-1 cells. Format: cell-based, human. Conditions: forskolin-stimulated THP-1 cells; 1 μM PE, 1 μM PT or 100 nM NE; 15 min at 37° C.; FIG. 4G, 4H. Here is the method: Cyclic AMP amounts were measured using the cAMP complete enzyme immunoassay kit, acetylated format (Enzo Life Sciences). 4×10^5 cells were incubated with forskolin/isobutylmethylxanthine (10 μM/0.5 mM final concentrations) in 0.1% BSA/10 mM Hepes-buffered RPMI and treated with CCL2 in the presence or absence of 1 μM PE, 1 μM PT or 100 nM NE at 37° C. for 15 min. The cells were lysed by incubating with 0.1 M HCl at room temperature for 20 min. The cAMP amounts in the lysate supernatant were measured following the manufacturer's instructions.

For assay [7], the target named is T2, CCR2. As to the kind of experiment: CCR2 internalization in THP-1 cells (flow cytometry). Format: cell-based. Further details: host or cells: THP-1. Conditions: 100 nM CCL2 plus 1 μM PE, 0-45 min at 37° C.; FIG. 7A/B. Here is the method:
To examine receptor internalization in THP-1 cells, cells were incubated with 100 nM CCL2 or with 100 nM CCL2 plus 1 μM PE for 0-45 min at 37° C. Cells were then cooled on ice and washed with 50 mM glycine buffer, pH 2.7, 150 mM NaCl, followed by washing with ice-cold PBS. Cell surface CCR2 was probed with anti-CCR2 and corresponding secondary Alexa 488-conjugated antibodies. Receptor cell surface expression levels are examined by flow cytometry and expressed as the median fluorescence intensity (MFI) in percent of the MFI measured at 0 min (=100%).

The subject of assay [8] is CR heteromerization partners of α1B/D-ARs (CCR1, CCR2, CXCR4). As to the kind of experiment: Chemotaxis assay, human monocytes, CR heteromerization partners of α1B/D-ARs taken together. It counts as cell-based. Conditions: FIG. 17B. Here is the method:
as §2

Assay [9] relates to CXCR4. Nature of the assay: Chemotaxis assay, human monocytes toward CXCL12 (CXCR4-mediated). Format: cell-based. Conditions: mean±SE, read-out: IC50 for inhibition of CXCR4-mediated chemotaxis. How it is done:
as §2

The test system of assay [10] is CCR1. As to the kind of experiment: Chemotaxis assay, human monocytes toward CCL23 (CCR1-mediated). The following applies: mean±SE, read-out: IC50 for inhibition of CCR1-mediated chemotaxis. Format: cell-based. How it is done: as §2
In assay [11] the test system is CCR8. As to the kind of experiment: Chemotaxis assay, human monocytes toward CCL1 (CCR8-mediated). Format: cell-based. Here is the method: as §2
The target of assay [12] is T2, CCR2. As to the kind of experiment: Chemotaxis assay, human monocytes toward CCL2 (CCR2-mediated). It counts as cell-based. Further details: host or cells: THP-1. The following applies: mean±SE, read-out: IC50 for inhibition of CCR2-mediated chemotaxis. How it is done:
as §2

T2 sequence (P41597 whole entry): as the sequence (P41597 whole entry) above

As for `Cc1ccc(N(CC2=NCCN2)c2cccc(O)c2)cc1` [phentolamine], in [1] (1 μM PT, FIG. 5B), the “effect on CCL2-induced β-arrestin recruitment to CCR2” value is recorded as “did not affect”. Besides, the “β-arrestin recruitment to CCR2-Tango by the ligand” value in [1] (cells co-transfected with CCR2-Tango plus α1b-AR, FIG. 5A) was “had no effect”; in assay [3], “did not induce”. The “chemotactic dose-responses for CCL23, CCL2 and CXCL12 in the presence of the ligand” value in assay [2] is reported as “inhibited chemotaxis over the complete range of chemokine concentrations”. Further, the “heteromeric complexes between α1B/D-ARs and their chemokine heteromerization partners (PLA signals)” value in [4] is given as “reduced”. For the same molecule, the “Top plateau, β-arrestin recruitment BRET in the presence of the ligand” value in assay [5] is reported as 0.061±0.002. Also, the “effect on the effects of CCL2 on cAMP production” value in assay [6] is recorded as “inhibited the effects of CCL2 on cAMP production”.

Regarding `CNC[C@H](O)c1cccc(O)c1` [phenylephrine], the “CCR2 cell surface expression, CCL2 plus ligand vs CCL2 alone” value in [7] is “significantly reduced CCR2 expression”. In addition, the “efficacy to induce β-arrestin recruitment to CCR2” value in [1] (agonist alone) was found to be 2.4±0.14 fold change RLU. For the same molecule, in [1] (co-stimulated with CCL2 and 1 μM PE vs CCL2 alone), the “increase of the efficacy of CCL2 to recruit β-arrestin to CCR2” value is given as 3 fold. The “efficacy of CCL2 to recruit β-arrestin to CCR2 in the presence of the ligand” value in assay [1] (co-stimulated with CCL2 and 1 μM PE, FIG. 5B) is recorded as 130±12 fold change RLU. In addition, the “chemotactic dose-responses for CCL23, CCL2 and CXCL12 in the presence of the ligand” value in assay [2] is “inhibited chemotaxis over the complete range of chemokine concentrations”. Further, the “inhibition of chemotaxis mediated via CR heteromerization partners of α1B/D-ARs” value is recorded as 50-55% in [2] (FIG. 17A) and 60-77% in assay [8]. Besides, the “β-arrestin recruitment to CCR2-Tango by the ligand” value in [3] is “did not induce”. For the same molecule, in [4], the “heteromeric complexes between α1B/D-ARs and their chemokine heteromerization partners (PLA signals)” value is listed as “reduced”. Also, the figures for the IC50 in assay [9], in assay [10] and in assay [12] were 6 ± 3 nM, 12 ± 8 nM and 37 ± 26 nM, respectively. For the same molecule, the CCL1-induced chemotaxis entry in assay [11] is given as “not affected”. In [6], the “effect on the effects of CCL2 on cAMP production” value is “inhibited the effects of CCL2 on cAMP production”.
